From the CheMixHub viscosity set

Assay: xn = mol fraction of the nth substance listed

Oc1ccccc1Cl + COCCO
viscosity [mPa·s], 101 kPa
Conditions	x1 = 0.0797	x1 = 0.163	x1 = 0.2503	x1 = 0.3418	x1 = 0.4379	x1 = 0.5388	x1 = 0.6451	x1 = 0.757	x1 = 0.8752
303.15 K	1.925	2.342	2.78	3.204	3.56	3.811	3.884	3.735	3.376
308.15 K	1.81	2.126	2.456	2.776	3.04	3.212	3.268	3.166	2.898
313.15 K	1.479	1.762	2.055	2.335	2.586	2.765	2.842	2.785	2.593
318.15 K	1.34	1.572	1.805	2.03	2.227	2.37	2.445	2.419	2.282

CCCOC(=O)c1ccccc1 + CCCCCCCC
101 kPa
Conditions	viscosity [mPa·s]
298.15 K, x2 = 0.0773	2.082
298.15 K, x2 = 0.1026	1.998
298.15 K, x2 = 0.1613	1.792
298.15 K, x2 = 0.2565	1.512
298.15 K, x2 = 0.3067	1.381
298.15 K, x2 = 0.3482	1.286
298.15 K, x2 = 0.3951	1.187
298.15 K, x2 = 0.4424	1.094
298.15 K, x2 = 0.4882	1.018
298.15 K, x2 = 0.5342	0.948
298.15 K, x2 = 0.5836	0.882
298.15 K, x2 = 0.6253	0.828
298.15 K, x2 = 0.6796	0.769
298.15 K, x2 = 0.727	0.723
298.15 K, x2 = 0.8351	0.633
298.15 K, x2 = 0.9429	0.558
308.15 K, x2 = 0.0816	1.645
308.15 K, x2 = 0.13	1.512
308.15 K, x2 = 0.1656	1.421
308.15 K, x2 = 0.2095	1.318
308.15 K, x2 = 0.2541	1.225
308.15 K, x2 = 0.2993	1.136
308.15 K, x2 = 0.3584	1.034
308.15 K, x2 = 0.3968	0.972
308.15 K, x2 = 0.4503	0.897
308.15 K, x2 = 0.4892	0.846
308.15 K, x2 = 0.5375	0.79
308.15 K, x2 = 0.5822	0.743
308.15 K, x2 = 0.6192	0.707
308.15 K, x2 = 0.6824	0.653
308.15 K, x2 = 0.7188	0.625
308.15 K, x2 = 0.7692	0.588
308.15 K, x2 = 0.8292	0.55
308.15 K, x2 = 0.8674	0.527
308.15 K, x2 = 0.9303	0.497
318.15 K, x2 = 0.0629	1.422
318.15 K, x2 = 0.09	1.361
318.15 K, x2 = 0.1362	1.261
318.15 K, x2 = 0.1878	1.163
318.15 K, x2 = 0.233	1.081
318.15 K, x2 = 0.2525	1.047
318.15 K, x2 = 0.33	0.926
318.15 K, x2 = 0.3813	0.856
318.15 K, x2 = 0.4267	0.801
318.15 K, x2 = 0.4776	0.744
318.15 K, x2 = 0.5373	0.686
318.15 K, x2 = 0.5751	0.653
318.15 K, x2 = 0.6208	0.616
318.15 K, x2 = 0.671	0.581
318.15 K, x2 = 0.7073	0.556
318.15 K, x2 = 0.7545	0.53
318.15 K, x2 = 0.8156	0.497
318.15 K, x2 = 0.8667	0.472
318.15 K, x2 = 0.9127	0.453

CCCCOC(C)=O + CS(C)=O
viscosity [mPa·s], 101.33 kPa
Conditions	x2 = 0.074	x2 = 0.1418	x2 = 0.2774	x2 = 0.46	x2 = 0.5396	x2 = 0.6383	x2 = 0.7272	x2 = 0.809	x2 = 0.9021	x2 = 0.9703
293.15 K	0.774	0.789	0.868	1.011	1.098	1.211	1.363	1.527	1.791	2.063
303.15 K	0.678	0.692	0.752	0.879	0.931	1.032	1.146	1.28	1.488	1.697
313.15 K	0.592	0.606	0.662	0.766	0.809	0.889	0.983	1.117	1.258	1.423

CCCCOC(C)=O + CCO
viscosity [mPa·s], 101 kPa
Conditions	x1 = 0.0995	x1 = 0.1987	x1 = 0.2996	x1 = 0.4023	x1 = 0.4982	x1 = 0.5987	x1 = 0.693	x1 = 0.7968	x1 = 0.9004
298.15 K	0.937	0.835	0.765	0.71	0.668	0.647	0.639	0.641	0.648
303.15 K	0.871	–	0.712	0.663	–	0.612	0.61	0.616	0.621
308.15 K	0.797	0.719	0.657	0.621	0.591	0.582	0.582	0.582	0.587
313.15 K	0.734	0.671	0.621	0.591	0.563	0.558	0.555	0.562	–

CCCN + COCCOCCOC
298.15 K, 101 kPa
Conditions	viscosity [mPa·s]
x1 = 0.0113	0.985
x2 = 0.0044	0.359
x2 = 0.0179	0.368
x2 = 0.0461	0.385
x2 = 0.0659	0.4
x2 = 0.0913	0.417
x2 = 0.1293	0.443
x2 = 0.1685	0.472
x2 = 0.1892	0.487
x2 = 0.2354	0.518
x2 = 0.2682	0.541
x2 = 0.2727	0.544
x2 = 0.315	0.575
x2 = 0.3201	0.579
x2 = 0.3647	0.613
x2 = 0.3683	0.615
x2 = 0.4079	0.644
x2 = 0.4628	0.679
x2 = 0.5243	0.721
x2 = 0.5823	0.757
x2 = 0.6408	0.796
x2 = 0.7358	0.84
x2 = 0.79	0.873
x2 = 0.8565	0.908
x2 = 0.897	0.935
x2 = 0.9375	0.955
